The record followed here is US20210387966A1, “2-AMINO-N-HETEROARYL-NICOTINAMIDES AS NAV1.8 INHIBITORS” (Merck Sharp & Dohme Corp., priority 2018, published 2021).

The target in this test is T1, human Nav1.8 channels (Homo sapiens, UniProt Q9Y5Y9).
T1 construct: expressed in transfected cells
T1 sequence (Q9Y5Y9 whole entry): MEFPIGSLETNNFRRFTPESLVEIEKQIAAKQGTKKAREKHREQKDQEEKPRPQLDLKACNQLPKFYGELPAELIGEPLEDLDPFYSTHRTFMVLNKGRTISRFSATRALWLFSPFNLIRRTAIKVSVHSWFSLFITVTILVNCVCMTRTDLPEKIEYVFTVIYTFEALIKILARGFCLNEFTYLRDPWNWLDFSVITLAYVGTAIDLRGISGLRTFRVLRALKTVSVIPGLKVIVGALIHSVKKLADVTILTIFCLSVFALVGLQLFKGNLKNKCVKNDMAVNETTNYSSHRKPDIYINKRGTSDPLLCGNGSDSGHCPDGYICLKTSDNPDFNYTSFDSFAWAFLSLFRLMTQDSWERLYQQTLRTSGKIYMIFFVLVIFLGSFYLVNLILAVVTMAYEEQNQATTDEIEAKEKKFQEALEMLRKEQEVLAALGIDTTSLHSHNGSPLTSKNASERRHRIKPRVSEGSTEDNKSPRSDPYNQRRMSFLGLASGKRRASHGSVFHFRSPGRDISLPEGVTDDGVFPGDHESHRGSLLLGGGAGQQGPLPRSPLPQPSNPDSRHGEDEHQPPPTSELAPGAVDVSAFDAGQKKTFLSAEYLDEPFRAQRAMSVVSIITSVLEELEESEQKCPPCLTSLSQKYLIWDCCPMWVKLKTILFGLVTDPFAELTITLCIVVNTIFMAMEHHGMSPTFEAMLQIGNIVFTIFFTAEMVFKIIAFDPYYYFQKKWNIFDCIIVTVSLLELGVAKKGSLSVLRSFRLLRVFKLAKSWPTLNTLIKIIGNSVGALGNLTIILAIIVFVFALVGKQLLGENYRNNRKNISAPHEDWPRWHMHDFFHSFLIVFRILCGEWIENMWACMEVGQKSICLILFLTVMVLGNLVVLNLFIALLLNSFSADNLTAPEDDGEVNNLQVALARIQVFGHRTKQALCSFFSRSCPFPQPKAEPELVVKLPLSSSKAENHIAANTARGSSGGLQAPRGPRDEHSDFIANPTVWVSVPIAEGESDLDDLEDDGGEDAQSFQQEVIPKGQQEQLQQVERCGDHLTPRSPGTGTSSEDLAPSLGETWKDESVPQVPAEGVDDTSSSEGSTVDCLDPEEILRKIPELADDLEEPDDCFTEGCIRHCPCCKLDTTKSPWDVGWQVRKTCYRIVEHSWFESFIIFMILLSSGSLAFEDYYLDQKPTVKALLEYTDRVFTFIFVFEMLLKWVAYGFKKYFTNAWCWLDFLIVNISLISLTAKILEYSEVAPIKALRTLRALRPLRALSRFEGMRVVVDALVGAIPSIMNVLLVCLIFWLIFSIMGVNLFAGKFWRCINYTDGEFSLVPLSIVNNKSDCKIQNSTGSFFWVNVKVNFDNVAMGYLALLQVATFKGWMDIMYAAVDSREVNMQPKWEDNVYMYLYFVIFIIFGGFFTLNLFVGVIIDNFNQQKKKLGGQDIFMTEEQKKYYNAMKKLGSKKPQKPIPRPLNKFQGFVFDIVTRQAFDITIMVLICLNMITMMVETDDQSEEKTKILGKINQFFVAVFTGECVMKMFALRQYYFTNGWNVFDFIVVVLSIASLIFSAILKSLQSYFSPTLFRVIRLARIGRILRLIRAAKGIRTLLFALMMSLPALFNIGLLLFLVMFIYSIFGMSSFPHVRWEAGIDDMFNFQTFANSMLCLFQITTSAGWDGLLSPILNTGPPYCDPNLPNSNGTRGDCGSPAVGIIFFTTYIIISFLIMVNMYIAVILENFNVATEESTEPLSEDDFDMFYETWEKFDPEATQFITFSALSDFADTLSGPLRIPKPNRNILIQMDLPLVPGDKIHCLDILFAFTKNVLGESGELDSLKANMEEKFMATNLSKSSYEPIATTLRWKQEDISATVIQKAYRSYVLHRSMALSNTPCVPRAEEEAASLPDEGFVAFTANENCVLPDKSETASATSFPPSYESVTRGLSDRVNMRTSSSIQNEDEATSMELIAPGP
Description: Nav1.8 Qube automated patch-clamp assay. The format is cell-based. To be noted: human Nav1.8 stably expressed in HEK 293 cells; whole-cell voltage clamp, room temperature; resting or inactivated state not specified; read-out: IC50 values (nM) for Examples in the Nav1.8 Qube Assay. The method in brief:
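Whole-cell patch clamp at room temperature on HEK293 cells stably expressing human Nav1.8. A 1 Hz train of ten 20 ms pulses to 10 mV from −90 mV holding, with −67 mV repolarization, was applied; first- and tenth-pulse peak currents gave resting and inactivated-state IC50s by Hill fitting.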
A general note: The patch-clamp technique gives a direct electrical read-out from membranes.
Turning to `NS(=O)(=O)c1cc(NC(=O)c2cc(N3CCCCC3)cnc2N2CCC(F)(F)CC2)ccn1` [Example 206, 2-(4,4-difluoropiperidin-1-yl)-5-(piperidin-1-yl)-N-(2-sulfamoylpyridin-4-yl)nicotinamide], the IC50 worked out at 363 nM.
The figure for `NS(=O)(=O)c1cc(NC(=O)c2cc(-n3cccn3)cnc2N2CCC(F)(F)CC2)ccn1` [Example 207, 2-(4,4-difluoropiperidin-1-yl)-5-(1H-pyrazol-1-yl)-N-(2-sulfamoylpyridin-4-yl)nicotinamide] is 1080 nM.
The result for `O=C(Nc1cc[nH]c(=O)c1)c1cc(C(F)(F)F)cnc1N1CCC2(CC1)CC2` [Example 208, N-(2-oxo-1,2-dihydropyridin-4-yl)-2-(6-azaspiro[2.5]octan-6-yl)-5-(trifluoromethyl)nicotinamide] reads 287 nM; that for `Cc1nc(N2CCC3(CC2)CC3)c(C(=O)Nc2cc[nH]c(=O)c2)c(C)c1Cl` [Example 209, 5-chloro-4,6-dimethyl-N-(2-oxo-1,2-dihydropyridin-4-yl)-2-(6-azaspiro[2.5]octan-6-yl)nicotinamide], 12 nM; that for `O=C(Nc1cc[nH]c(=O)c1)c1cc(C(F)(F)F)cnc1N1CCCC(F)(F)CC1` [Example 210, 2-(4,4-difluoroazepan-1-yl)-N-(2-oxo-1,2-dihydropyridin-4-yl)-5-(trifluoromethyl)-nicotinamide], 86 nM.
Regarding `Cc1nc(N2CCCCC2)c(C(=O)Nc2cc[nH]c(=O)c2)c(C)c1Cl` [Example 211, 5-chloro-4,6-dimethyl-N-(2-oxo-1,2-dihydropyridin-4-yl)-2-(piperidin-1-yl)-nicotinamide], the IC50 came out at 357 nM.
Turning to `O=C(Nc1cc[nH]c(=O)c1)c1cc(C(F)(F)F)cnc1N1CCCCCC1` [Example 212, 2-(azepan-1-yl)-N-(2-oxo-1,2-dihydropyridin-4-yl)-5-(trifluoromethyl)nicotinamide], the IC50 was found to be 570 nM.
Take `Cc1nc(N2CCCCCC2)c(C(=O)Nc2cc[nH]c(=O)c2)c(C)c1Cl` [Example 213, 2-(azepan-1-yl)-5-chloro-4,6-dimethyl-N-(2-oxo-1,2-dihydropyridin-4-yl)nicotinamide]: the half-maximal inhibitory concentration (IC50) is 80 nM.
Regarding `Cc1nc(N2CCCC(F)(F)CC2)c(C(=O)N(C)c2ccnc(S(N)(=O)=O)c2)c(C)c1Cl` [Example 214, 5-chloro-2-(4,4-difluoroazepan-1-yl)-N,4,6-trimethyl-N-(2-sulfamoylpyridin-4-yl)nicotinamide], the IC50 was 347 nM.
The figure for `Cc1nc(C2CCC(C)CC2)c(C(=O)Nc2ccnc(S(N)(=O)=O)c2)c(C)c1Cl` (stereo not shown) [Example 215, 5-chloro-4,6-dimethyl-2-(4-methylcyclohexyl)-N-(2-sulfamoylpyridin-4-yl)nicotinamide] is 6.6 nM.
The result for `NS(=O)(=O)c1cc(NC(=O)c2ncc(Cl)nc2N2CCCC(F)(F)CC2)ccn1` [Example 216, 5-chloro-3-(4,4-difluoroazepan-1-yl)-N-(2-sulfamoylpyridin-4-yl)pyrazine-2-carboxamide] reads 80 nM; that for `Cc1nc(C2CCCCCC2)c(C(=O)Nc2ccnc(S(N)(=O)=O)c2)c(C)c1Cl` [Example 217, 5-chloro-2-cycloheptyl-4,6-dimethyl-N-(2-sulfamoylpyridin-4-yl)nicotinamide], 3.2 nM; that for `Cc1nc(C2CCC(F)(F)CC2)c(C(=O)Nc2ccnc(S(N)(=O)=O)c2)c(C)c1Cl` [Example 218, 5-chloro-2-(4,4-difluorocyclohexyl)-4,6-dimethyl-N-(2-sulfamoylpyridin-4-yl)nicotinamide], 2.4 nM.

As a reminder, the IC50 is the concentration at which inhibition is half-maximal.
